Results on 52 compounds are retold here after paper PMC11550483 (2024).

This experiment concerns the target SARS2 M^pro (Severe acute respiratory syndrome coronavirus 2, UniProt P0DTD1, P3395H). The class given is biochemical, SARS-CoV-2.
On to `COc1ccc(C(=O)Nc2ccccc2N)cc1` [MWAC-0001806, COc1ccc(cc1)C(=O)Nc2ccccc2N], for which the “% inhibition (20 µM) biochemical” value stood at 1%.

For `COc1ccc(CC(=O)NCc2ccccc2Cl)cc1` [MWAC-0001807, COc1ccc(CC(=O)NCc2ccccc2Cl)cc1], the “% inhibition (20 µM) biochemical” value amounted to 1%.

In the case of `O=C(Nc1cc([N+](=O)[O-])ccc1F)c1cccc(F)c1` [MWAC-0001808, [O-][N+](=O)c1ccc(F)c(NC(=O)c2cccc(F)c2)c1], the “% inhibition (20 µM) biochemical” value was found to be 1.53%.

As to `CC(=O)C1=C(O)C(=O)N(c2ccc(Br)cn2)C1c1ccc(Cl)cc1` (stereo not shown) [MWAC-0001809, CC(=O)C1=C(O)C(=O)N(C1c2ccc(Cl)cc2)c3ccc(Br)cn3], the “% inhibition (20 µM) biochemical” value was 16%.

Take `Cc1ccccc1OCCOc1ccccc1/C=N/n1cnnc1` [MWAC-0001810, Cc1ccccc1OCCOc2ccccc2\C=N\n3cnnc3]: the “% inhibition (20 µM) biochemical” value is 5%.

Consider `CCOc1ccc(/C=C2\SC(Nc3ccccc3O)=NC2=O)cc1` [MWAC-0001811, CCOc1ccc(\C=C\2/SC(=NC2=O)Nc3ccccc3O)cc1], for which the “% inhibition (20 µM) biochemical” value came to 5.42%.

For `CCc1c(C)sc(NC(=O)CCc2ccccc2)c1C(N)=O` [MWAC-0001812, CCc1c(C)sc(NC(=O)CCc2ccccc2)c1C(=O)N], the “% inhibition (20 µM) biochemical” value turned out to be 4%.

On to `O=C1NC(=S)NC(=O)C1=Cc1ccccc1OS(=O)(=O)c1ccc2ccccc2c1` [MWAC-0001813, O=C1NC(=S)NC(=O)C1=Cc2ccccc2OS(=O)(=O)c3ccc4ccccc4c3], for which the “% inhibition (20 µM) biochemical” value was found to be 4.38%.

With `O=C(Nc1ccccc1O)c1ccc(Cl)c([N+](=O)[O-])c1` [MWAC-0001814, Oc1ccccc1NC(=O)c2ccc(Cl)c(c2)[N+](=O)[O-]], the “% inhibition (20 µM) biochemical” value turned out to be 2.59%.

On to `Nc1c(C(=O)c2ccccc2)sc2nc3c(cc12)CCC3` [MWAC-0001815, Nc1c(sc2nc3CCCc3cc12)C(=O)c4ccccc4], for which the “% inhibition (20 µM) biochemical” value is 27%.

Take `O=C1/C(=C/c2cccnc2)SC(=S)N1Cc1cccnc1` [MWAC-0001816, O=C1N(Cc2cccnc2)C(=S)S/C/1=C\c3cccnc3]: the “% inhibition (20 µM) biochemical” value stood at 43%.

`Cc1cc(C(=O)CCl)c(C)n1Cc1ccco1` [MWAC-0001817, Cc1cc(C(=O)CCl)c(C)n1Cc2occc2]: the “% inhibition (20 µM) biochemical” value came out at 62%.

On to `Cc1ccc(Cn2cc(SCC(=O)NCc3ccco3)c3ccccc32)cc1` [MWAC-0001818, Cc1ccc(Cn2cc(SCC(=O)NCc3occc3)c4ccccc24)cc1], for which the “% inhibition (20 µM) biochemical” value stood at 3.38%.

Consider `COc1ccc(C2=NN3C(C2)c2ccccc2OC32C(=O)Nc3ccccc32)cc1OC` (stereo not shown) [MWAC-0001819, COc1ccc(cc1OC)C2=NN3C(C2)c4ccccc4OC35C(=O)Nc6ccccc56], for which the “% inhibition (20 µM) biochemical” value is listed as 0.611%.

As for `Cc1ccc(NC(=S)Nc2ccccc2)nc1` [MWAC-0001820, Cc1ccc(NC(=S)Nc2ccccc2)nc1], the “% inhibition (20 µM) biochemical” value was 2.27%.

With `Cc1ccc2nc(N3C(=O)C(O)=C(C(=O)c4ccco4)C3c3ccco3)sc2c1` (stereo not shown) [MWAC-0001821, Cc1ccc2nc(sc2c1)N3C(C(=C(O)C3=O)C(=O)c4occc4)c5occc5], the “% inhibition (20 µM) biochemical” value was determined as 16%.

As for `COCCNc1nc2cc(C)ccc2[nH]1` [MWAC-0001822, COCCNc1nc2cc(C)ccc2[nH]1], the “% inhibition (20 µM) biochemical” value stood at 3%.

For the compound `COc1ccccc1N1CCN(C(=O)CCl)CC1` [MWAC-0001823, COc1ccccc1N2CCN(CC2)C(=O)CCl], the “% inhibition (20 µM) biochemical” value was 98%.

Take `COc1cc(CSc2nnc[nH]2)c(OC)cc1CSc1nnc[nH]1` [MWAC-0001824, COc1cc(CSc2nnc[nH]2)c(OC)cc1CSc3nnc[nH]3]: the “% inhibition (20 µM) biochemical” value is reported as 0%.

On to `Cc1cc(C(=O)CCl)c(C)n1CCc1cccs1` [MWAC-0001825, Cc1cc(C(=O)CCl)c(C)n1CCc2cccs2], for which the “% inhibition (20 µM) biochemical” value was determined as 56%.

As to `COCCCNC(=O)/C(C#N)=C/c1cc(C)n(-c2ccc(F)cc2)c1C` [MWAC-0001826, COCCCNC(=O)\C(=C\c1cc(C)n(c1C)c2ccc(F)cc2)\C#N], the “% inhibition (20 µM) biochemical” value stood at 5%.

Turning to `Cc1ccc(OCCN2C(=O)C(=O)c3ccccc32)cc1` [MWAC-0001827, Cc1ccc(OCCN2C(=O)C(=O)c3ccccc23)cc1], the “% inhibition (20 µM) biochemical” value stood at 4.54%.

With `N#C/C(=C\c1c[nH]c2ccccc12)C(=O)NC1CC1` [MWAC-0001828, O=C(NC1CC1)\C(=C\c2c[nH]c3ccccc23)\C#N], the “% inhibition (20 µM) biochemical” value is given as 11%.

For the compound `Cc1ccc2nc(NC(=O)c3ccc(S(C)(=O)=O)c([N+](=O)[O-])c3)sc2c1` [MWAC-0001829, Cc1ccc2nc(NC(=O)c3ccc(c(c3)[N+](=O)[O-])S(=O)(=O)C)sc2c1], the “% inhibition (20 µM) biochemical” value came to 64%.

Regarding `CCCOc1ccc(CN2C(=O)C(=O)c3ccccc32)cc1` [MWAC-0001830, CCCOc1ccc(CN2C(=O)C(=O)c3ccccc23)cc1], the “% inhibition (20 µM) biochemical” value turned out to be 5%.

On to `CCOC(=O)/C=C(\C)N1N=C(c2ccccc2)CC1c1ccc(N(C)C)cc1` (stereo not shown) [MWAC-0001831, CCOC(=O)\C=C(/C)\N1N=C(CC1c2ccc(cc2)N(C)C)c3ccccc3], for which the “% inhibition (20 µM) biochemical” value came to 5.67%.

Consider `COc1ccc(OC)c(C(=O)c2oc3ccccc3c2NC(=O)CCl)c1` [MWAC-0001832, COc1ccc(OC)c(c1)C(=O)c2oc3ccccc3c2NC(=O)CCl], for which the “% inhibition (20 µM) biochemical” value worked out at 85%.

Consider `O=C1OC(NC(=O)c2ccccc2)C(NC(=O)c2ccccc2)=C1Cl` (stereo not shown) [MWAC-0001833, ClC1=C(NC(=O)c2ccccc2)C(NC(=O)c3ccccc3)OC1=O], for which the “% inhibition (20 µM) biochemical” value is 4%.

Turning to `COc1ccc(OC)c(NC(=O)CSc2nc3cc4c(cc3cc2C#N)OCCO4)c1` [MWAC-0001834, COc1ccc(OC)c(NC(=O)CSc2nc3cc4OCCOc4cc3cc2C#N)c1], the “% inhibition (20 µM) biochemical” value turned out to be 5.66%.

Regarding `Nc1ncnc(N)c1N=Nc1ccccc1` [MWAC-0001835, Nc1ncnc(N)c1N=Nc2ccccc2], the “% inhibition (20 µM) biochemical” value was 6.65%.

`Nc1ccc(C(=O)Nc2ccccc2N)cc1` [MWAC-0001836, Nc1ccc(cc1)C(=O)Nc2ccccc2N]: the “% inhibition (20 µM) biochemical” value turned out to be 5%.

For the compound `Cc1cc(C(=O)COn2nnc3ccc(Cl)cc32)c(C)n1-c1ccc2c(c1)OCO2` [MWAC-0001837, Cc1cc(C(=O)COn2nnc3ccc(Cl)cc23)c(C)n1c4ccc5OCOc5c4], the “% inhibition (20 µM) biochemical” value is 26%.

As for `Cc1ccc2nc(-c3ccc(SCC(=O)Nc4nc(C)cs4)nc3)[nH]c2c1` [MWAC-0001838, Cc1ccc2nc([nH]c2c1)c3ccc(SCC(=O)Nc4nc(C)cs4)nc3], the “% inhibition (20 µM) biochemical” value was found to be 2.56%.

Consider `O=C(CCC(=O)Nc1ccc2c(c1)OCCO2)Nc1ccc(OCc2ccccc2)cc1` [MWAC-0001840, O=C(CCC(=O)Nc1ccc2OCCOc2c1)Nc3ccc(OCc4ccccc4)cc3], for which the “% inhibition (20 µM) biochemical” value is given as 3%.

`COc1ccc(CC(=O)N2CCC3(CC2)NC(=O)c2cc(Br)ccc2N3)cc1` [MWAC-0001841, COc1ccc(CC(=O)N2CCC3(CC2)NC(=O)c4cc(Br)ccc4N3)cc1]: the “% inhibition (20 µM) biochemical” value is on record as 0%.

Regarding `O=Cc1ccccc1OCc1ccc2c(c1)OCO2` [MWAC-0001842, O=Cc1ccccc1OCc2ccc3OCOc3c2], the “% inhibition (20 µM) biochemical” value stood at 11%.

For the compound `CCOC(=O)C(=O)Nc1sc(C(=O)Nc2cccc(Cl)c2)c(C)c1C(=O)OC` [MWAC-0001843, CCOC(=O)C(=O)Nc1sc(C(=O)Nc2cccc(Cl)c2)c(C)c1C(=O)OC], the “% inhibition (20 µM) biochemical” value stood at 5.71%.

On to `CCOc1ccccc1OCC(=O)N/N=C/c1cc(C)ccc1O` [MWAC-0001844, CCOc1ccccc1OCC(=O)N\N=C\c2cc(C)ccc2O], for which the “% inhibition (20 µM) biochemical” value came out at 21%.

`Cc1cc(C(=O)COn2nnc3ccccc32)c(C)n1-c1ccc2c(c1)OCO2` [MWAC-0001845, Cc1cc(C(=O)COn2nnc3ccccc23)c(C)n1c4ccc5OCOc5c4]: the “% inhibition (20 µM) biochemical” value amounted to 20%.

In the case of `COc1ccc(C(=O)NNC(=O)Cc2ccc(-c3ccccc3)cc2)cc1` [MWAC-0001846, COc1ccc(cc1)C(=O)NNC(=O)Cc2ccc(cc2)c3ccccc3], the “% inhibition (20 µM) biochemical” value was determined as 0.595%.

With `O=C(CN1C(=O)C(=O)N(Cc2ccccc2)C1=O)Nc1cc(Cl)cc(Cl)c1` [MWAC-0001847, Clc1cc(Cl)cc(NC(=O)CN2C(=O)N(Cc3ccccc3)C(=O)C2=O)c1], the “% inhibition (20 µM) biochemical” value is given as 0.75%.

`O=C(CCl)Nc1cn(-c2ccccc2)nc1-c1ccc(F)cc1` [MWAC-0001848, Fc1ccc(cc1)c2nn(cc2NC(=O)CCl)c3ccccc3]: the “% inhibition (20 µM) biochemical” value was 13%.

With `COc1ccc(C(CNC(=O)CCl)N2CCCCC2)cc1` (stereo not shown) [MWAC-0001849, COc1ccc(cc1)C(CNC(=O)CCl)N2CCCCC2], the “% inhibition (20 µM) biochemical” value is reported as 33%.

On to `COC(=O)c1c(NC(=O)CCl)sc(C(=O)N2CCOCC2)c1C` [MWAC-0001850, COC(=O)c1c(C)c(sc1NC(=O)CCl)C(=O)N2CCOCC2], for which the “% inhibition (20 µM) biochemical” value turned out to be 74%.

Consider `CCc1cccc2c(/C=C3\C(=O)Nc4ccccc43)c[nH]c12` [MWAC-0001851, CCc1cccc2c(\C=C\3/C(=O)Nc4ccccc34)c[nH]c12], for which the “% inhibition (20 µM) biochemical” value was 2.36%.

Take `CCOC(=O)c1sc(NC(=O)c2sccc2C)cc1C` [MWAC-0001852, CCOC(=O)c1sc(NC(=O)c2sccc2C)cc1C]: the “% inhibition (20 µM) biochemical” value was found to be 10%.

Turning to `CCOc1ccc(-c2nc(CSc3nnc(N)[nH]3)cs2)cc1` [MWAC-0001853, CCOc1ccc(cc1)c2nc(CSc3nnc(N)[nH]3)cs2], the “% inhibition (20 µM) biochemical” value stood at 1.25%.

Turning to `CCOC(=O)c1c(NC(=O)CCl)sc2c1CC(C)(C)NC2(C)C` [MWAC-0001854, CCOC(=O)c1c(NC(=O)CCl)sc2c1CC(C)(C)NC2(C)C], the “% inhibition (20 µM) biochemical” value is 98%.

In the case of `O=C1N(Cc2ccccc2)c2ccccc2C12NNc1ccccc1O2` (stereo not shown) [MWAC-0001855, O=C1N(Cc2ccccc2)c3ccccc3C14NNc5ccccc5O4], the “% inhibition (20 µM) biochemical” value is listed as 2.76%.

With `CCCCS(=O)(=O)N(O)c1ccc(Cl)cc1` [MWAC-0001856, CCCCS(=O)(=O)N(O)c1ccc(Cl)cc1], the “% inhibition (20 µM) biochemical” value was 4%.

Regarding `CC(NC(=O)CCl)C1COc2ccccc2O1` (stereo not shown) [MWAC-0001857, CC(NC(=O)CCl)C1COc2ccccc2O1], the “% inhibition (20 µM) biochemical” value is given as 26%.

For the compound `Cc1cc(CNC(=O)CCl)cc(C)c1O` [MWAC-0001858, Cc1cc(CNC(=O)CCl)cc(C)c1O], the “% inhibition (20 µM) biochemical” value was determined as 45%.
